The record followed here is patent US20120122225A1, “CARRIER PEPTIDE FRAGMENT AND USE THEREOF” (TOAGOSEI CO. LTD., priority 2009, published 2012).

* marks the point of attachment. FITC = O=C1OC2(c3ccc(O)cc3Oc3cc(O)ccc32)c2ccc(NC(=S)*)cc21; Ahx = NCCCCCC(=O)O

Assay [1] relates to human iPS cells (cell line 201B2-082008KU). Put plainly: Evaluation of cell membrane permeability function (2), confocal laser scanning microscopy of fluorescently labeled peptide. In kind it is cell-based. The conditions noted are these: 1 μM sample; for penetration of the cell membrane from outside the cell / transfer into the cells: 1 hour culture (FIGS. 3, 4), methanol fixed. The text has this:
The target cells for transferring the foreign substance were changed from human neonate foreskin fibroblasts to human iPS cells (human induced pluripotent stem cells), and the cell membrane permeability capability of the two samples (constructs for transferring a foreign substance) obtained in Example 1 above was investigated. It should also be noted that the iPS cells (cell line 201B2-082008KU) and the mouse embryonic fibroblast feeder cells (cell line SNL 76/7, hereinafter “MEF”) used in this example were provided by the Yamanaka Research Laboratory of the Institute for Frontier Medical Sciences, Kyoto University (professor Shinya Yamanaka).
First the obtained MEF were inactivated by a mitomycin C treatment (3 hours) and then trypsinized in a 0.25% trypsin solution containing 1 mM EDTA. After the above treatment, the trypsin was deactivated with culture medium containing FBS, and the MEF were adjusted to a suitable cell density using D-MEM medium (Dulbecco's Modified Eagle Medium: Gibco) containing MEF culture medium (7% FBS: Gibco), 2 mM L-glutamine (Gibco), 50 units/mL penicillin, and 50 μg/mL streptomycin (Gibco), and the abovementioned MEF were seeded onto a culture container (in the form of a culture slide or plate) with a surface coating of 0.1% gelatin. In this case, the MEF were seeded so that the cell density would be approximately 1.25×10^5 cells/mL. Next, the abovementioned cell culture containers were incubated overnight at 37° C. in a 5% CO2 atmosphere.
Thereafter, the feeder cells were prepared by removing the MEF culture medium and rinsing with PBS.
Separately, CTK solution (0.25% trypsin solution containing 0.1 mg/mL collagenase IV (Gibco), 1 mM calcium chloride, and 20% KSR (KnockOut® Serum Replacement)) was added to the obtained iPS cell line, the MEF were peeled therefrom, and the cells were rinsed with PBS.
Next, 1 mL hESC culture medium (i.e., human ES cell medium, in this case, DMEM/F12 culture medium (Gibco) containing 20% KSR (Gibco), 2 mM L-glutamine (Gibco), 0.1% nonessential amino acids (Gibco), 0.1 mM 2-mercaptoethanol (Gibco), 50 units/mL penicillin, and 50 μg/mL streptomycin (Invitrogen, 4 ng/mL bFGF (basic fibroblast growth factor)) was added, the iPS cells were peeled off using a cell scraper, and the colony was broken apart by gentle pipetting.
A suspension of iPS cells obtained in this manner was seeded onto the feeder cells in the culture containers that had been prepared as described above. Then, the abovementioned hESC medium was added, and the cell culture containers were incubated overnight at 37° C. in a 5% CO2 atmosphere.
After incubation overnight, the culture medium was removed from the culture containers, and the abovementioned hESC medium to which one of the 1 mM sample solutions prepared in abovementioned Example 1 had been added to make a final sample concentration (pipetted concentration) of 1 μM was added to the culture containers. Then the samples were incubated at 37° C. for either 1 or 4 hours in a 5% CO2 atmosphere.
The cells after 1 hour of culture and cells after 4 hours of culture were each rinsed in PBS (phosphate buffered saline) and fixed with methanol (on ice for 10 min).
Next, the same treatment as in Example 2 was performed, and the localization within the iPS cells of the peptide that was bonded to the fluorescent dye (i.e., fluorescently labeled) was verified using a confocal scanning laser microscope. FIG. 3 is a micrograph showing the results after 1 hour of culture of the cell suspension to which abovementioned Sample No. 1 had been added, and FIG. 4 is a micrograph after 1 hour of culture of the cell suspension to which abovementioned Sample No. 2 had been added.

In assay [2] the test system is Human neonate foreskin fibroblasts (ATCC Catalogue No. CRL-2097). Briefly: Evaluation of cell membrane permeability function (1), confocal laser scanning microscopy of fluorescently labeled peptide. The conditions noted are these: 1 μM sample. Type of assay: cell-based. How it is done:
Human neonate foreskin fibroblasts (ATCC Catalogue No. CRL-2097) were used as the eukaryotic cells, and the cell membrane permeability capability of the two samples (constructs for transferring a foreign substance) obtained in Example 1 above was investigated.
More specifically, the abovementioned fibroblasts were cultured in a liquid mixture of 90% Eagle MEM culture medium (containing 0.1% nonessential amino acids, 2 mM L-glutamine, 1 mM sodium pyruvate, and 1.5 g/L sodium hydrogen carbonate) and 10% serum (FBS) as the culture medium.
The cultured cells were trypsinized for 1 min at 37° C. with a 0.25% trypsin solution. After the abovementioned treatment, the trypsin was deactivated with FBS-containing medium, and a cell suspension (test sample for foreign substance transfer) was prepared by adjusting the cell concentration to approximately 5×10^4 cells/mL with the culture medium.
Next, 0.5 mL of the abovementioned cell suspension was placed in a designated cell culturing container (culture slide with a surface coating of 0.1% gelatin), and the cells were incubated overnight at 37° C. in a 5% CO2 atmosphere. After incubation the medium was replaced with fresh culture medium, and the 1 mM sample solutions of each of the samples prepared in abovementioned Example 1 were added to a cell culture container so that the final sample concentration (peptide concentration) would be 1 μM. In this case 0.5 μL of sample solution was added to the container. Then the samples were incubated at 37° C. for either 1 or 4 hours in a 5% CO2 atmosphere.
The cells after 1 hour of culture and the cells after 4 hours of culture were each rinsed in PBS (phosphate buffered saline) and fixed with methanol (on ice for 10 min).
Next the methanol-fixed samples (cells) were mounted using Prolong® Gold Antifade Reagent (Invitrogen) that contains the nuclear stain DAPI (4′,6-diamidino-2-phenylindole). Then the localization within the cells of the peptide bonded to the fluorescent dye (i.e., fluorescently labeled peptide) in each test sample (i.e., the abovementioned mounted test samples after methanol fixation) was verified using a confocal scanning laser microscope.
FIGS. 1 and 2 are micrographs showing the results when abovementioned Sample No. 1 was added to the liquid suspension of cells.

On to (FAM)-WRRQARFK [Sample No. 1], for which the cell membrane permeability result in assay [1] and in assay [2] was “exhibited excellent cell membrane permeability” in each case. For the same substance, the “translocation into the nucleus (DAPI nuclear staining)” value in assay [1] is listed as “had further translocated into the nucleus”; in assay [2] (1 or 4 hours culture), “had translocated into the nucleus”. Also, the “penetration of the cell membrane from outside the cell / transfer into the cells” value was “penetrated the cell membrane from outside the cell rapidly after addition and were transferred into the cells” in assay [1]; “penetrated the cell membrane from outside the cell rapidly after it was added, and thus was transferred into the cells” in assay [2] (1 or 4 hours culture, methanol fixed).
Turning to “(FITC)-(Acp)-WRRQARFKGTLKERCLQVVRSLVK ({FITC-Ahx}-WRRQARFKGTLKERCLQVVRSLVK-NH2; SMILES CC(C)C[C@H](NC(=O)[C@H](CS)NC(=O)[C@H](CCCNC(=N)N)NC(=O)[C@H](CCC(=O)O)NC(=O)[C@H](CCCCN)NC(=O)[C@H](CC(C)C)NC(=O)[C@@H](NC(=O)CNC(=O)[C@H](CCCCN)NC(=O)[C@H](Cc1ccccc1)NC(=O)[C@H](CCCNC(=N)N)NC(=O)[C@H](C)NC(=O)[C@H](CCC(N)=O)NC(=O)[C@H](CCCNC(=N)N)NC(=O)[C@H](CCCNC(=N)N)NC(=O)[C@H](Cc1c[nH]c2ccccc12)NC(=O)CCCCCNC(=S)Nc1ccc2c(c1)C(=O)OC21c2ccc(O)cc2Oc2cc(O)ccc21)[C@@H](C)O)C(=O)N[C@@H](CCC(N)=O)C(=O)N[C@H](C(=O)N[C@H](C(=O)N[C@@H](CCCNC(=N)N)C(=O)N[C@@H](CO)C(=O)N[C@@H](CC(C)C)C(=O)N[C@H](C(=O)N[C@@H](CCCCN)C(N)=O)C(C)C)C(C)C)C(C)C) [Sample No. 2, FITC bonded via linker Acp (6-aminohexanoic acid) to the N-terminus of Peptide 2; construct for transferring a foreign substance]”, in assay [1], the cell membrane permeability entry was “exhibited excellent cell membrane permeability”; the “translocation into the nucleus (DAPI nuclear staining)” value was “had further translocated into the nucleus”; the “penetration of the cell membrane from outside the cell / transfer into the cells” value was “penetrated the cell membrane from outside the cell rapidly after addition and were transferred into the cells”. Moreover, the cell membrane permeability entry in assay [2] is on record as “exhibited excellent cell membrane permeability”.
